Reference: US7026344B2, “Treating sickle cell disease” (priority 2000, dated 2006)

Tests used:
[1] = test system: activated-PMN mediated SRBC retention/adherence in the isolated-perfused rat lung; assay: SRBC retention/adherence in isolated-perfused lung with PMA-activated PMNs; conditions: for SRBC retention/adherence: mean±SE
Protocol: Isolated perfused lung. Male Sprague-Dawley rats (275–350 g) were anesthetized with Nembutal sodium (25 mg ip), and lungs were removed for extracorporeal perfusion. A tracheostomy was performed that permitted ventilation with a Harvard rodent ventilator (model 683) at 55 breaths/min with a tidal volume of 2.5 ml and 2.0 cmH2O positive end-expiratory pressure. The inspired gas mixture as 95% air-5% CO2 (room air gas). A median stemotomy was performed, heparin sodium (100 IU) was injected in the right ventricle, and caminulas were placed in the pulmonary artery and left ventricle. Heart, lungs, and mediastinal structures were removed en bloc and placed into a humidified chamber. Lungs were perfused by a Gilson Minipuls 2 peristaltic pump at a constant flow of 0.03 ml·g body wt^−1·min^−1. Lungs were perfused with a physiological salt solution (PSS) containing bovine serum albumin (BSA, 66,000 mol.wt). The PSS-BSA perfusate contained (in mM) 119 NaCl, 4.7 KCI, 1.17 MgSO4, 22.5 NaHCO3, 1.18 KH2PO4, 3.2 CaCl2, 5.5 glucose, and 4 g/100 ml BSA. PSS-BSA (100 ml) was perfused through the lungs in a nonrecirculating fashion to remove residual blood cells and plasma. The perfusate was then changed to a PSS-BSA perfusate that contained RBCs from individuals homozygous for sickle cell anemia (Hb SS). The perfusate hematocrit was ˜10%. Pulmonary arterial pressure (Ppa) and pulmonary venous (Ppv) were continuously monitored with Cope pressure transducers (model 041-500-503) and recorded on a Grass polygraph recorder (model 7E). Zone 3 flow conditions (arterial>venous>alveolar pressures) were maintained throughout all experiments.
Blood collection. During steady-state, blood samples (˜40 ml) were obtained from normal (Hemoglobin A) human volunteers and from individuals with homozygous sickle cell anemia in the sickle cell clinics at the University of South Alabama. Samples were collected in syringes containing heparin and utilized within 48 hours of collection. Individuals having received blood transfusions within 6 wks were excluded from this study. Sickle cell anemia was documented by hemoglobin electrophoresis in each subject.
RBC isolation and Cr^51 labeling. Each whole blood sample was centrifuged at 4100 rpm for 10 min followed by the removal of the plasma and buffy coat. Packed RBCs were then mixed at a 1:3 dilution with normal saline and washed ×3. With each wash, the RBC suspension was centrifuged for 10 min at 3000 rpm followed by removal of the supernatant. Following the third wash, packed RBCs were resuspended in PBS (1 ml PBS/1 ml packed RBCs) and incubated with 100 μCi Cr^51 for 60 min in a shaker water bath at 37° C. Following incubation, the Cr^51 labeled RBCs were washed ×1 with normal saline and resuspended in PSS-BSA to obtain a hematocrit of ˜10%.
Neutrophil (PMN) isolations. Heparinized whole blood (20 ml) from individuals with homozygous sickle cell anemia was diluted 1:1 with normal saline. Dextran 500 was added to the 1:1 mix at ¼ the volume of the 1:1 mix. This was allowed to incubate for 45 min at 37° C. The supernatant (contains PMNs) was aspirated into a 50 ml centrifuge tube and underlayered with 10 ml histopague 1077. This was centrifuged at 1250 rpm for 30 min. The supernatant is aspirated and discarded leaving the PMN pellet. Sterile H2O, 3 ml, is added to the PMN pellet and agitated for 3 sec to lyse any residual RBCs. Phosphate buffered saline, 45 ml, is added immediately thereafter to stop the reaction. This is centrifuged at 1250 rpm for 10 min. The supernatant is aspirated and discarded. This process of RBC lysis followed by PBS is repeated until the PMN pellet is without visual evidence of RBC contamination. The PMN pellet is suspended in 1 ml of sterile Hank's balanced salt solution. A total PMN count is obtained using the Cell-DYN 900 Coulter Counter. PMN viability is 95–99% as assessed using trypan blue.
RBC Retention. […]

[2] = test system: K562 cells; assay: K562 cell viability by trypan blue exclusion; assay type: cell-based, human; conditions: 75 μM and 100 μM
Protocol: Cell Culture. K562 cells were grown in suspension cultures in RPMI-1640 containing 10% fetal bovine serum, penicillin (100 U/ml) and streptomycin (0.1 mg/ml in a humidified incubator at 37° C. in a 5%CO2/95% air atmosphere. […] The K562 cells were induced for 72 hours then RNA isolated for further analysis. Cell viability was completed by 2% trypan blue exclusion at timnes 0 and 72 hours.

[3] = test system: human γ (Huγ) mRNA in K562 cells; assay: γ globin mRNA induction in K562 cells by RNase protection assay; assay type: cell-based; conditions: K562, 48 hours, normalized to GAPD vs untreated
Protocol: Cell Culture. K562 cells were grown in suspension cultures in RPMI-1640 containing 10% fetal bovine serum, penicillin (100 U/ml) and streptomycin (0.1 mg/ml in a humidified incubator at 37° C. in a 5%CO2/95% air atmosphere. The following experimental conditions were analyzed in triplicate with 2×10^6 cells per well: an untreated control, ZL dissolved in 0.1% dimethylsulfoximide (DMSO) at final concentrations of […], HU at […] and two positive controls hemin (50 mM) and sodium butyrate (NB) 2 mM. The K562 cells were induced for 72 hours then RNA isolated for further analysis. Cell viability was completed by 2% trypan blue exclusion at timnes 0 and 72 hours.
RNA Isolation. RNA was isolated using RNA Stat-60 (TEL-TEST “B”, Inc., Friendswood, Tex.) according to the manufacturer's instructions. In brief, cell pellets will be suspended in RNA Stat-60 (1 ml) and chloroform (200 μl), and the RNA extracted and precipitated with isopropanol.
RNase Protection Analysis. MRNA levels will be quantitated by RNase protection assay (RPA) with probes designed to yield protected fragments for human γ (Huγ)and the internal control glyceraldehydes-3-phosphate dehydrogenase (GAPD). Huγ mRNA levels were normalized to that of GAPD and compared to the untreated K562 cells. (Zar: Statistical Analysis, Englewood)
Several pharmacological hemoglobin F inducers such as HU, 5-azacytidine, erythropoietin, didox, and butyrate alter γ gene expression in culture. The induction of γ gene activity in culture is a good indicator of potential clinical usefulness. Therefore the capability of ZL to induce γ gene activity at the mRNA level was tested. K562 cells were cultured in ZL from 0 to 100 μM or HU (50μ to 100 μM) for 48 hours. Total cellular RNA was analyzed by RPA for γ mRNA levels. An increase in γ mRNA for ZL at 20 μM with a maximal response at 75 μM (FIG. 4A) was observed. The level of γ gene mRNA synthesis was quantitated relative to the internal control, CAPD. […] K562 cell viability was decreased 10% when measured using trypan blue exclusion at 75 μM and 100 μM concentrations for both ZL and HU. The level of γ gene induction was 3.9 fold and 10-fold for the positive controls NB and hemin, respectively.

Compound | decrease in SRBC retention/adherence ([1]; ZL 2.5 μM pretreated A-PMN vs SRBC+A-PMN control (ethanol diluent), 30 min perfusion) | decrease in K562 cell viability [2] | fold increase in γ mRNA ([3]; ZL 20 μM) | fold increase in γ mRNA (maximal) ([3]; ZL 75 μM) | SRBC retention/adherence ([1]; HU 50 μM pretreated A-PMN) | SRBC retention/adherence ([1]; HU 100 μM pretreated A-PMN) | SRBC retention/adherence ([1]; HU 1000 μM pretreated A-PMN) | decrease in retained SRBCs ([1]; HU 1000 μM pretreated PMNs vs control (H2O diluent)) | attenuation of activated-PMN mediated enhanced SRBC retention/adherence ([1]; HU 50 and 100 μM) | fold increase in γ mRNA ([3]; HU 100 μM)
CC(c1cc2ccccc2s1)N(O)C(N)=O (racemic) [ZL, (±)-1-(1-Benzo[b]thien-2-ylethyl)-1-hydroxyurea] | ~42% | 10% | 2.6 fold | 4.1 fold | – | – | – | – | – | –
NC(=O)NO [HU, Hydroxyurea] | – | 10% | – | – | 4.2±0.4 ×10^8 SRBC/gram of lung | 4.3±0.4 ×10^8 SRBC/gram of lung | 3.9±0.2 ×10^8 SRBC/gram of lung | ~25% | did not attenuate | 2.7 fold
